The values that follow come from US4490527A, “Benzo-fused heterocyclic anti-ulcer agents” (American Home Products Corporation, priority 1983, dated 1984).

Data set [1] has as its system gastric acid secretion. In words: inhibition of secretion of acidic gastric juice in dogs (Pavlov gastric pouch, fed). In kind it is in vivo, dog (beagle). As to conditions: for ED50: Canis lupus familiaris, po, read-out: ID50 (dose at which there is obtained a 50% inhibition of the total gastric acid output). The method, then: The procedure for testing the ability of the compounds of the invention to inhibit the secretion of acidic gastric juice in dogs is as follows: A female pure bred beagle (7-10 kg) having Pavlov gastric pouches is fasted overnight with water ad lib. The animal is orally dosed and thirty minutes later it is fed to induce gastric acid secretions. Gastric acid samples are then collected every 15 minutes. The volume of each sample is measured and aliquots are titrated to neutrality with 0.1N NaOH to determine acid concentration.

In data set [2] the test system is gastric acid secretion. Description: gastric secretion in the rat, modified Shay procedure of pylorus ligation. As to conditions: intraduodenal, 4 h, i.d., four hours after ligation, read-out: % Inhibition (of acid output). In kind it is in vivo. The method, then:
The procedure for testing gastric secretion in the rat, a modification of the procedure of Shay et al., Gastroenterology, 26, 906-13 (1954) is carried out as follows: Male Charles River rats weighing 200-300 grams are deprived of food but not water for 24 hours prior to use. Water is, however, withheld during the experiment. The rats are weighed, anesthetized, and the pylorus ligated according to the method of Shay et al. Treatment or vehicle control is then administered interduodenally (i.d.). Rats are housed 2/cage and sacrificed with CO2 four hours after ligation. The stomachs are removed, rinsed, and contents emptied into a graduated centrifuge tube. The tubes are centrifuged for 20 minutes at 2,000 RPM and the volume of gastric juice recorded. Any samples obviously contaminated by feces, food or hemolysis are eliminated. An aliquot of each is frozen for later analysis of Na^+, K^+ and Cl^- concentration. The pH is measured and 1 ml. of gastric juice is titrated with 0.1N NaOH to a pH of 7.0-7.4. Titratable acid output is calculated in microequivalents and the percent inhibition of acid output is calculated as follows: [formula]

For a further data set, the target named is H2 histamine receptors (Cavia porcellus, UniProt P47747). Description: cell-based. As to conditions: vs histamine dose-response, 32° C., pH 7.4. Set-up: species or system guinea pig.
Sequence of H2 histamine receptors (P47747 whole entry): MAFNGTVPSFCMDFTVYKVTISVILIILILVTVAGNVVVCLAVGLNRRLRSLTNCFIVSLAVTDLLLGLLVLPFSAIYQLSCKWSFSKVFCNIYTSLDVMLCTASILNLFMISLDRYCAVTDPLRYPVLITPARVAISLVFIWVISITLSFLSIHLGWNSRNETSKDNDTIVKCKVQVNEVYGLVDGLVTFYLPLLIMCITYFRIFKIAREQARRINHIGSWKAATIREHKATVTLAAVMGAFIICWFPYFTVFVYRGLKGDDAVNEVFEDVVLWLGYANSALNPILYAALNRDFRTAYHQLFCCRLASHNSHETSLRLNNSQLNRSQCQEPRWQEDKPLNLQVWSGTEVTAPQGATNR
For data set [3] the following is noted: limitation noted in patients; cited from earlier work.
The mark [4] stands for this setting: orally dosed, fed thirty minutes later.

Entries after “also recorded” stand apart in the source; their conditions may differ. Like-named read-outs stand apart in the source and are kept apart here.

Procedure for H2 histamine receptors: The guinea pig heart atrium test is carried out as follows:
A guinea pig right atrium is suspended at 1 g. tension (isometric) in a thermostatically controlled (32° C.) tissue bath (10 ml) containing oxygenated (95% O2 ; 5% CO2) Krebs-Haenseleit buffer (pH 7.4). The tissue is allowed to stabilize over 1 hour. Individual contractions are recorded with a force-displacement transducer through a strain gauge coupler. A control dose-response curve to histamine in the above described tissue bath is obtained after which the tissue is washed 3 times and allowed to re-equilibrate to basal rate. The test compound is added to the tissue bath at the desired final concentration. Thirty minutes after addition of the compound, a fresh histamine dose response curve is again obtained. Then the response to histamine in the presence of antagonist is compared to the histamine control response. This procedure is repeated, using fresh tissues, for each concentration of antagonist tested. […] Cimetidine is used as the standard for this test.

As for `Cl.O=S1(=O)N=C(NCCCOc2ccc(CN3CCCCC3)cc2)c2ccccc21` [Example 38, N-[3-[4-[(1-piperidinyl)methyl]phenoxy]propyl]-1,2-benzisothiazol-3-amine 1,1-dioxide, hydrochloride], the ED50 in the data set with gastric acid secretion [1] (setting [4]) is 2 mg/kg. Besides, in the data set on gastric acid secretion [2], the inhibition in vivo at 1 mg/kg amounted to 34% and the inhibition in vivo at 4 mg/kg is 52%. The inhibition in vivo at 16 mg/kg in the data set with gastric acid secretion [2] (Dose 16 mg/kg) was determined as 93%. In addition, on H2 histamine receptors (30 min after addition, results of three experiments, read-out: pA2 Value (apparent dissociation constant of the H2 antagonist) (converted)), the Kb is 23.4 nM.
Regarding `O=S1(=O)N=C(NCCCOc2cccc(CN3CCCCC3)c2)c2cscc21` [Example 41], the ED50 with gastric acid secretion [1] (setting [4]) was 0.25 mg/kg. Besides, the “reduced gastric acid secretions” value in the data set with gastric acid secretion [1] (dose of 1 mg/kg, orally dosed) worked out at 82%. Further, the inhibition in vivo at 0.5 mg/kg in the data set on gastric acid secretion [2] (Dose 0.5 mg/kg) stood at 37%. In the data set with gastric acid secretion [2], the inhibition in vivo at 1 mg/kg was found to be 84% and the inhibition in vivo at 4 mg/kg came out at 87%. Besides, the inhibition in vivo at 8 mg/kg with gastric acid secretion [2] (Dose 8 mg/kg) is 91%. In addition, the Kb on H2 histamine receptors (marked *, result of only one experiment, read-out: KB value) turned out to be 5.94 nM.
As for `CN/C(=N/CCSCc1nc[nH]c1C)NC#N` [cimetidine], in data set [3], the duration of action entry is recorded as “short duration of action” and the side effects entry is reported as “anti-androgenic activity; also recorded: tendency to cause confusional states in elderly patients”. Also, the ED50 in the data set on gastric acid secretion [1] is 6 mg/kg.
